Measured values: article PMC11256326, “Discovery of Heparin Mimetic, Potent, and Selective Inhibitors of Human Clotting Factor XIIIa” (ACS Omega, 2024)

Key:
factor XIa = target: T1, factor XIa (Homo sapiens, UniProt P03951); experiment: chromogenic substrate hydrolysis assay, factor XIa; type: biochemical; conditions: for IC50: Tris-HCl pH 7.4, 37 °C, > values from highest concentration used, read-out: FXIa IC50; for FXIa HS (Hill slope) / FXIa ΔY (efficacy): pH 7.4, 37 °C
T1 construct: Human plasma proteins such as FXIIIa, thrombin, factor Xa, and factor XIa; purchased Haematologic Technologies; host or cells: human plasma
T1 sequence (P03951 388-625 limits assumed): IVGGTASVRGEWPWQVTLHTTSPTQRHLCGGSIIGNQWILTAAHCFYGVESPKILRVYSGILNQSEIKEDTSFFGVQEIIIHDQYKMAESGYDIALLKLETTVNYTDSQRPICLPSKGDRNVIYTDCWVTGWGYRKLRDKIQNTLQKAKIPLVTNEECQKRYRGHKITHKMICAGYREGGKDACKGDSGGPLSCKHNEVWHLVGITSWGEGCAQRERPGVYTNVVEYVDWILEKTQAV
T1 sequence (P03951 19-387 limits assumed): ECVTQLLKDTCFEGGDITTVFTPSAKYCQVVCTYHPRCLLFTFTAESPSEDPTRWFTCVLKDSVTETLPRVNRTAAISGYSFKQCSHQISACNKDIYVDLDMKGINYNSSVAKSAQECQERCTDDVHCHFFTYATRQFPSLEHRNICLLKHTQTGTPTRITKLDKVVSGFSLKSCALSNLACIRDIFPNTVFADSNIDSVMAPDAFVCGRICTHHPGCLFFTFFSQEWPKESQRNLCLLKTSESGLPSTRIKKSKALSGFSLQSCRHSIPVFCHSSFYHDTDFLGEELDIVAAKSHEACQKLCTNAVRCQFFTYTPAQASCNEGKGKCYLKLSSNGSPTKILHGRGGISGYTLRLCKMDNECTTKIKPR
From the text: (§1) One of the motivations for targeting anion-binding sites on human FXIIIa was to achieve selectivity in inhibition over closely related enzymes such as other clotting serine proteases or other transglutaminases and cysteine proteases.
(§2) Human plasma proteins such as FXIIIa, thrombin, factor Xa, and factor XIa were procured from Haematologic Technologies. Recombinant human TG-2 was sourced from Tocris Bioscience. Their activities were validated according to the supplier’s instructions. Chromogenic substrates for thrombin and factor Xa were acquired from Biomedica Diagnostics, while the factor XIa chromogenic substrate (S-2366) was obtained from Diapharma. Dithiothreitol, N,N-dimethylcasein, and dansylcadaverine were purchased from Sigma Aldrich. Stock solutions of thrombin and factor XIa were prepared in 50 mM Tris-HCl buffer, pH 7.4, containing 150 mM sodium chloride, 0.1% PEG8000, and 0.02% Tween80. The stock solution of factor Xa was prepared in 20 mM Tris-HCl buffer, pH 7.4, containing 100 mM sodium chloride, 0.1% PEG8000, 2.5 mM CaCl2, and 0.02% Tween80. The stock solutions of FXIIIa and rTG-2 were prepared in 50 mM Tris-HCl, 1 mM CaCl2, 100 mM sodium chloride, 0.02% Tween80, 0.1% PEG8000, and 2 mg/mL dimethylcasein. Papain and its chromogenic substrate (N-α-benzoyl-L-arginyl-4-nitroanilide) were obtained from Sigma Aldrich. Papain was prepared in 50 mM Tris-HCl buffer, pH 7.4, containing 100 mM NaCl, 100 mM DTT, 2.5 mM CaCl2, 0.1% PEG8000, and 0.02% Tween80. Human plasma for coagulation assays was obtained from George King Bio-Medica for the clotting assays. Thromboplastin-D (PT reagent), APTT reagent containing ellagic acid, and 0.025 M solution of CaCl2 were obtained from Thermo Fisher Scientific. Results were reproduced at least three times.
(§3) The inhibitory potential of various heparin mimetics against other clotting factors, including thrombin, factor Xa, and factor XIa, was also examined using established chromogenic substrate hydrolysis assays.[47],[50] For instance, in each well of a 96-well microplate containing either 85 or 185 μL of 20–50 mM Tris-HCl buffer (pH 7.4), supplemented with 100–150 mM NaCl, 0.1% PEG8000, and 0.02% Tween80 at either 25 or 37 °C, 5 μL of the inhibitor (or high purity water) and 5 μL of the enzyme were added. The final concentrations of the enzymes were 6 nM (thrombin), 1.09 nM (factor Xa), and 0.8 nM (factor XIa). After a 5 min incubation period, 5 μL of Spectrozyme TH (final concentration: 0.050 mM), Spectrozyme FXa (0.125 mM), or factor XIa substrate (0.35 mM) was swiftly added, and the residual enzyme activity was gauged from the initial rate of increase in absorbance at λ405 nm. The relative residual enzyme activity was calculated as a function of the inhibitor concentration. If 50% or more of the enzyme was inhibited, the results were then plotted using eq 1 to determine the corresponding IC50 values.

thrombin [1] = experiment: chromogenic substrate hydrolysis assay, thrombin; type: biochemical, human
From the text: as §1, §2, §3

thrombin [2] = target: T2, thrombin (Homo sapiens, UniProt P00734); experiment: chromogenic substrate hydrolysis assay, thrombin; type: biochemical; conditions: for IC50: Tris-HCl pH 7.4, 37 °C, > values from highest concentration used; for thrombin HS (Hill slope) / thrombin ΔY (efficacy): pH 7.4, 37 °C
T2 construct: Human plasma proteins such as FXIIIa, thrombin, factor Xa, and factor XIa; purchased Haematologic Technologies; host or cells: human plasma
From the text: as §1, §2, §3

factor Xa = target: T3, factor Xa (Homo sapiens, UniProt P00742); experiment: chromogenic substrate hydrolysis assay, factor Xa; type: biochemical; conditions: for IC50: Tris-HCl pH 7.4, 37 °C, > values from highest concentration used, read-out: FXa IC50; for FXa HS (Hill slope) / FXa ΔY (efficacy): pH 7.4, 37 °C
T3 construct: Human plasma proteins such as FXIIIa, thrombin, factor Xa, and factor XIa; purchased Haematologic Technologies; host or cells: human plasma
T3 sequence (P00742 235-488 limits assumed): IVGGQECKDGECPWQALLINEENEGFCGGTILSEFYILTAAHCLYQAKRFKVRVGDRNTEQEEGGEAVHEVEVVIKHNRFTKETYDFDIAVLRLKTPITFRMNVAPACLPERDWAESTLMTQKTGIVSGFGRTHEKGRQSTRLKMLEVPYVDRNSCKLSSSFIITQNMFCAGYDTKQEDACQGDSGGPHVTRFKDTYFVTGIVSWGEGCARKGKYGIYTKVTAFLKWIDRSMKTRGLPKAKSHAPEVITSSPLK
T3 sequence (P00742 41-179 limits assumed): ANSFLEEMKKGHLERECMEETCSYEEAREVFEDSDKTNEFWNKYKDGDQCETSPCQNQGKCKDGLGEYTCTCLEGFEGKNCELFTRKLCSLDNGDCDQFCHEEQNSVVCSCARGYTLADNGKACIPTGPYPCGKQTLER
From the text: as §1, §2, §3

normal human plasma = experiment: activated partial thromboplastin time (APTT) of normal human plasma; type: biochemical; conditions: for APTT2X (concentration required to double APTT): normal human plasma, in vitro
Protocol: To further evaluate the selectivity as well as the potential toxicity of inhibitors, we studied their effects on the clotting times of normal human plasma as well as their effects on the proliferation of three cell lines. On the one hand, the inhibitors’ effects on activated partial thromboplastin time (APTT) and prothrombin time (PT) were measured, as described earlier under in vitro conditions,[52]−[55] using variable concentrations (0–2000 μM) (Table 3). […] On the other hand, the antiproliferative properties of inhibitors 13 and 16 were evaluated in three cell lines of breast (MCF-7), intestine (CaCo-2), and kidney (HEK-293) (Figure 5B), as described earlier.[56] […] Overall, inhibitor 16 can be considered for further development as a potent, selective, and nontoxic inhibitor of human FXIIIa.
Clotting times, including activated partial thromboplastin time (APTT) and prothrombin time (PT), were assessed in normal human plasma utilizing the BBL Fibrosystem fibrometer from Becton–Dickinson, as detailed in previous publications.[51]−[54] For the PT assay, thromboplastin-D was dissolved in 4 mL of highly purified water and then warmed to 37 °C. Subsequently, 10 μL of the inhibitor was added to 90 μL of normal human plasma and incubated for 30 s. Following this, 200 μL of prewarmed PT reagent was added, and the clotting time was recorded. In the APTT assay, 10 μL of the inhibitor was combined with 90 μL of normal human plasma and 100 μL of prewarmed APTT reagent (0.2% ellagic acid). After incubation for 4 min at 37 °C, clotting was initiated by adding 100 μL of prewarmed 0.025 M CaCl2, and the clotting time was documented. Multiple concentrations of each molecule were employed in both assays to establish a concentration vs effect curve.

With `Nc1c(/N=N/c2ccc(S(=O)(=O)CCOS(=O)(=O)O)cc2)c(S(=O)(=O)O)cc2cc(S(=O)(=O)O)c(/N=N/c3ccc(S(=O)(=O)CCOS(=O)(=O)O)cc3)c(O)c12` [compound 16] the “selectivity index for FXIIIa over factor XIa” value (factor XIa) was over 65 fold, the IC50 (factor XIa) was over 150 µM and the “selectivity index for FXIIIa over thrombin” value (thrombin [1]) was over 208 fold. The IC50 (thrombin [2]) was over 500 µM, the “selectivity index for FXIIIa over factor Xa” value (factor Xa) was over 208 fold and the IC50 (factor Xa) was over 500 µM. For the same molecule, the “concentration to double APTT as fold of the FXIIIa-IC50” value (normal human plasma) was over 290 fold and the “APTT2X (concentration required to double APTT)” value (“APTT2X” below) (normal human plasma) was 704.6 ± 69 µM.
For `Nc1c(S(=O)(=O)O)cc(Nc2ccc(Nc3nc(Cl)nc(Nc4ccccc4S(=O)(=O)O)n3)c(S(=O)(=O)O)c2)c2c1C(=O)c1ccccc1C2=O` [compound 13], the “selectivity index for FXIIIa over factor XIa” value (factor XIa) was over 48 fold, the IC50 (factor XIa) was over 150 µM and the “selectivity index for FXIIIa over thrombin” value (thrombin [1]) was 28 fold. The IC50 (thrombin [2]) was 86.9 ± 33.6 µM, the “thrombin HS (Hill slope)” value (thrombin [2]) was 1.9 ± 1.5 and the “thrombin ΔY (efficacy)” value (thrombin [2]) was 43 ± 11%. The “selectivity index for FXIIIa over factor Xa” value (factor Xa) was 20 fold, the IC50 (factor Xa) was 63.5 ± 13 µM and the “FXa HS (Hill slope)” value (factor Xa) was 1.5 ± 0.5. The “FXa ΔY (efficacy)” value (factor Xa) was 87 ± 4% and the “APTT2X” value (normal human plasma) was 1187.2 ± 175 µM.
With `Nc1c(/N=N/c2ccc(Nc3nc(Cl)nc(Nc4cccc(S(=O)(=O)O)c4)n3)cc2S(=O)(=O)O)c(S(=O)(=O)O)cc2c(O)c(/N=N/c3ccc(Nc4nc(Cl)nc(Nc5cccc(S(=O)(=O)O)c5)n4)cc3S(=O)(=O)O)ccc12` [compound 14] the “selectivity index for FXIIIa over factor XIa” value (factor XIa) was over 30 fold, the IC50 (factor XIa) was over 150 µM and the IC50 (thrombin [2]) was over 500 µM. The “selectivity index for FXIIIa over factor Xa” value (factor Xa) was 6 fold, the IC50 (factor Xa) was 31 ± 5.7 µM and the “FXa HS (Hill slope)” value (factor Xa) was 2.5 ± 0.9. For the same molecule, the “FXa ΔY (efficacy)” value (factor Xa) was 53 ± 5% and the “APTT2X” value (normal human plasma) was 583 ± 60 µM.
With `Cc1cc(-c2ccc(/N=N/c3ccc4c(S(=O)(=O)O)cc(S(=O)(=O)O)c(N)c4c3O)c(C)c2)ccc1/N=N/c1ccc2c(S(=O)(=O)O)cc(S(=O)(=O)O)c(N)c2c1O` [compound 18] the “FXIa HS (Hill slope)” value (factor XIa) was 1.9 ± 0.3, the “FXIa ΔY (efficacy)” value (factor XIa) was 104 ± 3% and the “thrombin HS (Hill slope)” value (thrombin [2]) was 2.6 ± 1.0. For the same molecule, the “thrombin ΔY (efficacy)” value (thrombin [2]) was 62 ± 5%, the “FXa HS (Hill slope)” value (factor Xa) was 1.9 ± 0.2 and the “FXa ΔY (efficacy)” value (factor Xa) was 80 ± 2%. The “APTT2X” value (normal human plasma) was 224.3 ± 20 µM.
With `COc1cc(-c2ccc(/N=N/c3ccc4c(S(=O)(=O)O)cc(S(=O)(=O)O)c(N)c4c3O)c(OC)c2)ccc1/N=N/c1ccc2c(S(=O)(=O)O)cc(S(=O)(=O)O)c(N)c2c1O` [compound 19] the IC50 (factor XIa) was 6.2 ± 0.4 µM, the “FXIa HS (Hill slope)” value (factor XIa) was 1.5 ± 0.1 and the “FXIa ΔY (efficacy)” value (factor XIa) was 106 ± 3%. For the same molecule, the “selectivity index for FXIIIa over thrombin” value (thrombin [1]) was “at least 7 fold”, the IC50 (thrombin [2]) was over 100 µM and the “selectivity index for FXIIIa over factor Xa” value (factor Xa) was “at least 7 fold”. The IC50 (factor Xa) was over 100 µM and the “APTT2X” value (normal human plasma) was 1840.7 ± 88 µM.
